Test results reported in patent publication EP0563345B1, “NOVEL 4-ARYLPIPERAZINES AND 4-ARYLPIPERIDINES” (MCNEILAB, INC., priority 1991, dated 1993).
Counter-ions that a name gives are not always drawn. Like-named read-outs stand apart in the source and are kept apart here.

Assays:
Male, Fischer 344 rats = test: Block of Conditioned Avoidance Responding (Rat) test (CAR); details: for CAR 5 mg/kg IP Administration (% change CAR) / CAR 15 mg/kg IP Administration (% change CAR): negative number = blockade of CAR
Summary of the method: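 Trained rats at 90% avoidance ran 60-trial sessions with a 15-sec light/tone conditioned stimulus, then a 0.7 mA shock. Vehicle was given on Day 1 and test compound on Day 2, with matched route and pretreatment time. The % change in CAR versus Day 1 and % escape failures are group means, with escape loss at 5 mg/kg unless noted.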

[1] = test system: apomorphine-induced emesis in the dog; test: Block of Apomorphine-Induced Emesis In Dogs; assay type: in vivo; details: for ED50: Canis lupus familiaris, read-out: ED50 and 95% confidence limits, apomorphine HCl 1 mg/kg s.c.; for inhibition of apomorphine-induced emesis in the dog: in vivo
Method: This latter test is used in the preclinical evaluation of antipsychotics, and it also implies that the compounds could be used clinically for the treatment of emesis.
This procedure was modified from that described in Janssen, P. A. J.; Niemegeers, C. J. E.; Schellekens, K. Arzn.-Forch. […] The animals were treated with a test dose of apomorphine HCI to produce retching, and the effectiveness of a test compound in blocking that retching is determined. […] Following one of several pretreatments, a challenge dose of 1 mg/kg apomorphine HCl s.c. was given and the number of retches that occurred during the following 20 min period was recorded. At the start of the series, and after one week on testing, all dogs were pretreated with saline before the challenge dose of apomorphine HCI was administered. All of the saline-pretreated animals retched. […] Data were analyzed to determine the ED50 dose for blocking apomorphine HCI-induced emesis.

Male Charles-River rats = test: Rat Glass Bead Test (propulsive motility of the distal colon); assay type: in vivo; details: mean expulsion time of glass bead
Method: The rat glass bead test is used to evaluate the action of compounds on propulsive motility of the distal colon. Male Charles-River rats weighing 50-90 grams are fasted for at least 18 hours in individual cages with water provided. Groups of rats are then dosed by the indicated route at the appropriate pretreatment time. A 4 mm glass bead is then inserted 3.5 cm into the distal colon through the anus using a 4 mm diameter glass rod. Rats are then placed in open top glass jars and observed for 60 minutes. The time for expulsion of the bead is noted for each rat. Rats not expelling the bead after 60 minutes are necropsied and the presence of the bead in the colon confirmed. […] Statistical analysis is done using one way analysis of variance and Fisher's LSD comparison. A probability of less than 0.05 is considered to be statistically significant.

[2] = target: T1, D-2 (dopamine-2) receptors (Rattus norvegicus, UniProt P61169); test: biochemical; assay type: binding, male, Wistar rats; details: rat striatum P2 fraction, 3H-spiperone 0.05 nM; read-out: Receptor Binding (Ki nM) D2
T1 construct: The D2 assay employed a P2 fraction from the striatum, the ligand ^3H-spiperone at a concentration of 0.05 nM; from tissue; host or cells: rat striatum, P2 fraction (synaptosomal membranes), male Wistar rats
Method: The dopamine D2 binding activity of compounds was determined using a P2 fraction (synaptosomal membranes) prepared from male, Wistar rats.
The data from this assay were analyzed by calculating the percent inhibition of the binding of the tritiated ligands by given concentrations of the test compound. Kl values, where given, were obtained from the logit analysis of concentration-inhibition curves.

[3] = test system: male, Sprague-Dawley rats; test: Catalepsy Test in Rats; details: 50 mg/kg IP
Method: The catalepsy test is taken to evaluate the liability of anti-psychotics to produce extra-pyramidal side effects.
The forepaws of male, Sprague-Dawley rats obtained from Charles River (170-240 g) were gently placed on a black cork (3.5 cm high) and the time until the forepaw was removed was recorded. Each rat was given three trials with a maximum time of 60 sec on the cork. The sum of the three trials was taken as the score for each rat. Percent catalepsy was defined as the percent of 180 sec (maximum time) that a rat permitted its forepaw to rest on the cork. […] In each test session, two control groups were used; animals treated with saline (or vehicle) served as a negative control and animals treated with haloperidol were a positive control.

[4] = test system: spontaneously hypertensive rats (SHR model); test: Spontaneously Hypertensive Rat Test (SHR); assay type: in vivo; details: 30 mg/kg p.o.
Method: Compounds #37 and 87 were also evaluated in the fully recovered, unanesthetized, unrestrained spontaneously hypertensive rats (SHR model) which is described hereinafter. They were deemed to be active because at doses of 30 mg/kg p.o. they caused a drop in the mean arterial pressure. For compound #37 the drop was 26 mm of mercury with an onset of 0.5 h and a duration of 3.5 h. For compound no. 87 the drop was 37 mm of mercury with an onset of 0.25 h and a duration of 5.75 h.
Adult male 350-450 g SHR [Tac:N(SHR)FBR], Taconic Farms, Germantown, New York are prepared for direct measurement of arterial pressure, housed in individual cages, and maintained on constant intraarterial infusion to assure catheter patency. Rats are permitted a 7-day postoperative recovery period to allow complete restoration of salt/water balance and body weight. Rats are assigned to vehicle or drug treatment groups (n=3/group). Drugs are uniformly suspended in 1% methylcellulose vehicle and given orally by gavage. Parameters are sampled continuously from the conscious, unrestrained rats and averaged every 15 min for the first 2 h and then hourly through 24 h after dosing. In order to take diurnal changes that are not drug related into account, 24 h timecourse curves for each parameter in drug treated SHR are compared to those from the concurrent control group. Since the average standard between-subject error is about 5 mm of mercury for arterial pressure parameters and about 11 bpm for heart rate, differences from concurrent control of greater than 10 mm of mercury and 22 bpm (2 SEM) are considered drug-related activity. Onset and duration are calculated from any pattern that achieves a maximum difference that meets these criteria.

[5] = Overall statement on the antipsychotic screens (CAR test and D-2 affinity); details: as far as tested
From the text: (§1) The antipsychotic activity of the compounds of the invention may be determined by the Block of Conditioned Avoidance Responding (Rat) test (CAR), references being Cook, L. and E. Weidley in Ann.

[6] = Overall statement on the other non-antipsychotic screens; details: screens in which they have been tested to date
From the text: as §1

[7] = intravenous (IV) administration
[8] = oral administration, 1 h pretreatment
[9] = oral administration, 4 h pretreatment

T1 sequence (P61169 whole entry): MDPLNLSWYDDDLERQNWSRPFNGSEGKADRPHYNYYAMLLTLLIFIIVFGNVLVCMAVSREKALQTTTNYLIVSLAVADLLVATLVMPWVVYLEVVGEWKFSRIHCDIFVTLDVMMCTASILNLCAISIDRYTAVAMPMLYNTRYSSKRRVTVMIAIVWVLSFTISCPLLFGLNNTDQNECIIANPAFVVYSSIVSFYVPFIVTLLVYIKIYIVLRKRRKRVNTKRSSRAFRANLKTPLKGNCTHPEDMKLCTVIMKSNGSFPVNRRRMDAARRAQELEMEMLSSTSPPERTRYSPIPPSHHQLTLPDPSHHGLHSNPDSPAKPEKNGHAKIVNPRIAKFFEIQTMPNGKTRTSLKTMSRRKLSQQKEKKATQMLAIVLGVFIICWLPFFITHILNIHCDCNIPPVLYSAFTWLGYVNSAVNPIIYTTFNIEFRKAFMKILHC

SMILES | CAR 5 mg/kg IP Administration (% change CAR) (Male, Fischer 344 rats) | (Escape Loss) % failures to escape (Male, Fischer 344 rats; at CAR 5 mg/kg IP) | Glass bead expulsion time (Male Charles-River rats; IP, 1.0 mg/kg) | Ki [2] | Catalepsy (%) ([3]; Pre-Reaction Time 60 min) | Catalepsy (%) ([3]; Pre-Reaction Time 240 min) | potential antipsychotic activity in either of the screens [5] | further results
CC(C)Oc1ccccc1N1CCN(Cc2cccc(C(=O)N3CCCCCC3)c2)CC1.Cl [Compound 54, Hexahydro-1-[3-[[4-[2-(1-methylethoxy)phenyl]-1-piperazinyl]methyl]-benzoyl]-1H-azepine monohydrochloride] | -88% | 5% | 16 min | – | – | – | – | ED50 [1, 7]: 0.019 mg/kg; ED50 [1, 8]: 0.047 mg/kg; ED50 [1, 9]: 0.251 mg/kg; inhibition of apomorphine-induced emesis in the dog [1]: particularly potent inhibitors
CC(C)Oc1cc(F)ccc1N1CCN(Cc2cccc(C(=O)N3CCOCC3)c2)CC1 [Compound 80] | -91% | 14% | 14 min | 79 nM | 84.8% | 62.0% | – | –
CC(C)Oc1ccccc1N1CCN(Cc2cccc(C(=O)N3CCCCC3)c2)CC1 [Compound 53, 1-[3-[[4-[2-(1-Methylethoxy)phenyl]-1-piperazinyl]methyl]benzoyl]piperidine Hydrochloride (3:2)] | – | – | – | – | 32.4% | 47.9% | – | CAR IP Administration (% change CAR) at 7.5 mg/kg (Male, Fischer 344 rats; 7.5 mg/kg IP): -91%; (Escape Loss) % failures to escape (Male, Fischer 344 rats; at CAR 7.5 mg/kg IP): 8%; ED50 [1, 7]: 0.03 mg/kg; ED50 [1, 8]: 0.038 mg/kg; ED50 [1, 9]: 0.263 mg/kg; inhibition of apomorphine-induced emesis in the dog [1]: particularly potent inhibitors
O=C(c1cccc(CN2CCN(c3ccc(Cl)cc3)CC2)c1)N1CCCCC1 [Compound 87] | – | – | 28 min | – | – | – | not exhibited potential antipsychotic activity | CAR 15 mg/kg IP Administration (% change CAR) (Male, Fischer 344 rats): -5%; (Escape Loss) % failures to escape (Male, Fischer 344 rats; at CAR 15 mg/kg IP): 0%; activity in the SHR model [4]: active; drop in the mean arterial pressure [4]: 37 mm of mercury; duration of the drop in mean arterial pressure [4]: 5.75 h; onset of the drop in mean arterial pressure [4]: 0.25 h
CC(O)COc1ccccc1N1CCN(Cc2cccc(C(=O)N3CCCCC3)c2)CC1 (stereo not shown) [Compound 27] | – | – | – | 703 nM | – | – | not exhibited potential antipsychotic activity | CAR 15 mg/kg IP Administration (% change CAR) (Male, Fischer 344 rats): -8%; (Escape Loss) % failures to escape (Male, Fischer 344 rats; at CAR 15 mg/kg IP): 0%
CC(C)Oc1ccccc1N1CCN(Cc2ccccc2C(=O)N2CCCCC2)CC1.Cl.Cl [Compound 111, 1-[2-[[4-[2-(1-Methylethoxy)phenyl]-1-piperazinyl]methyl]benzoyl]piperidine Dihydrochloride] | – | – | 11 min | – | 52% | 50.7% | – | –
CC(C)Oc1ccccc1N1CCN(Cc2cccc(C(=O)N3CCCCC3C(=O)O)c2)CC1 (stereo not shown) [Compound 24] | – | – | – | > 1000 nM | – | – | not exhibited potential antipsychotic activity | activity in any of the other non-antipsychotic screens [6]: not exhibited activity
O=C(c1cccc(CN2CCN(c3ccccc3Cl)CC2)c1)N1CCCCCC1 [Compound 93] | -23% | 0% | 25 min | 18 nM | 20.0% | 1.9% | – | –
CC1CN(Cc2cccc(C(=O)N3CCCCC3)c2)CCN1c1ccccc1 (stereo not shown) [Compound 8] | – | – | – | > 1000 nM | – | – | not exhibited potential antipsychotic activity | activity in any of the other non-antipsychotic screens [6]: not exhibited activity
O=C(c1cccc(CN2CCN(c3ccc4c(c3)OCO4)CC2)c1)N1CCCCC1 [Compound 36] | -10% | 0% | – | > 1000 nM | – | – | not exhibited potential antipsychotic activity | Glass bead expulsion time (Male Charles-River rats; PO, 10.0 mg/kg): 7.4 min
COc1ccccc1N1CCN(Cc2cccc(C(=O)N3CCCCC3)c2)CC1 [Compound 84] | -98% | 42% | 42 min | 29 nM | 18.8% | 33.9% | – | –
O=C(c1cccc(CN2CCN(c3ncccn3)CC2)c1)N1CCC[C@H]1CO [Compound 20] | – | – | – | > 1000 nM | – | – | not exhibited potential antipsychotic activity | CAR 15 mg/kg IP Administration (% change CAR) (Male, Fischer 344 rats): -17%; (Escape Loss) % failures to escape (Male, Fischer 344 rats; at CAR 15 mg/kg IP): 1%; activity in any of the other non-antipsychotic screens [6]: not exhibited activity
CC(C)Oc1ccccc1C1CCN(Cc2cccc(C(=O)N3CCCCCC3)c2)CC1 [Compound 39] | -86% | 2% | – | 1.2 nM | 17.3% | – | – | –
O=C(c1cccc(CN2CCN(c3ncccn3)CC2)c1)N1CCCCC1 [Compound 37] | -18% | 1% | – | > 1000 nM | – | – | not exhibited potential antipsychotic activity | Glass bead expulsion time (Male Charles-River rats; PO, 10.0 mg/kg): 25 min; activity in the SHR model [4]: active; drop in the mean arterial pressure [4]: 26 mm of mercury; duration of the drop in mean arterial pressure [4]: 3.5 h; onset of the drop in mean arterial pressure [4]: 0.5 h
O=C(CCCN1CCC(O)(c2ccc(Cl)cc2)CC1)c1ccc(F)cc1 [Haloperidol, haloperidol, reference compound] | – | – | – | – | – | – | – | ED50 [1, 7]: 0.023 mg/kg; ED50 [1, 8]: 0.088 mg/kg; ED50 [1, 9]: 0.028 mg/kg
COc1ccc(OC)c(N2CCN(Cc3cccc(C(=O)N4CCCC4)c3)CC2)c1 [Compound 47] | – | – | – | > 1000 nM | – | – | not exhibited potential antipsychotic activity | CAR 15 mg/kg IP Administration (% change CAR) (Male, Fischer 344 rats): 2%; (Escape Loss) % failures to escape (Male, Fischer 344 rats; at CAR 15 mg/kg IP): 0%; activity in any of the other non-antipsychotic screens [6]: not exhibited activity
